Where “and” joins values, the source holds several entries; their conditions need not be identical. Equal entries are not always repeated.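 In this assay, cells in 96-well plates receive the compound at five concentrations for 48 hours. Endpoints are linearly interpolated between the surrounding concentrations. At the GI50, growth is halved. TGI denotes the concentration required for complete inhibition of growth.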
Assays:
Experiment in all cases: NCI-60 cell line screen, 48 h
RPMI-8226 leukemia = system: RPMI-8226 leukemia
NCI-H23 lung = system: NCI-H23 lung
SW-620 colon = system: SW-620 colon
OVCAR-4 ovarian = system: OVCAR-4 ovarian
OVCAR-8 ovarian = system: OVCAR-8 ovarian
MOLT-4 leukemia = system: MOLT-4 leukemia
MALME-3M melanoma = system: MALME-3M melanoma
HOP-62 NSCLC = system: HOP-62 NSCLC
UACC-62 melanoma = system: UACC-62 melanoma
NCI/ADR-RES ovarian = system: NCI/ADR-RES ovarian

Row | Structure (SMILES) | TGI (RPMI-8226 leukemia) | TGI (NCI-H23 lung) | TGI (SW-620 colon) | TGI (OVCAR-4 ovarian) | TGI (OVCAR-8 ovarian) | TGI (MOLT-4 leukemia) | TGI (MALME-3M melanoma) | GI50 (NCI-H23 lung) | GI50 (HOP-62 NSCLC) | TGI (HOP-62 NSCLC) | GI50 (SW-620 colon) | GI50 (OVCAR-4 ovarian) | GI50 (MOLT-4 leukemia) | GI50 (MALME-3M melanoma) | GI50 (UACC-62 melanoma) | TGI (UACC-62 melanoma) | GI50 (NCI/ADR-RES ovarian) | TGI (NCI/ADR-RES ovarian) | GI50 (OVCAR-8 ovarian) | GI50 (RPMI-8226 leukemia)
1 | COC(=O)c1ccc(Cl)cc1NC(=O)C1CCCCC1 | > 100 µM | > 100 µM | > 100 µM | > 100 µM | > 100 µM | > 100 µM | > 100 µM | – | – | – | – | – | – | – | – | – | – | – | – | –
2 | Cc1ccc(-c2nc(N3CCCNCC3)c3oc(-c4ccccc4)nc3n2)cc1 | – | 3.71 µM | 3.21 µM | 3.55 µM | – | 3.58 µM | 3.48 µM | 1.95 µM | 1.84 µM | 3.36 µM | 1.68 µM | 1.82 µM | 1.79 µM | 1.93 µM | 1.71 µM | 3.3 µM | – | – | – | –
3 | C=C(CN1CCN(c2cccc(C(F)(F)F)n2)CC1)c1ccc(C(=S)Nc2ccccc2N)cc1 | – | 8.85 µM | 72.2 µM | > 100 µM | > 100 µM | 6.4 µM | – | 2.81 µM | 8.08 µM | > 100 µM | 4.07 µM | 3.01 µM | 2.1 µM | – | 2.28 µM | 6.89 µM | 3.12 µM | > 100 µM | 5.33 µM | –
4 | COc1ccc2oc(C(=O)O)c3c2c1CCC3 | > 100 µM | > 100 µM | > 100 µM | > 100 µM | > 100 µM | > 100 µM | – | – | – | > 100 µM | – | – | – | – | – | > 100 µM | – | – | – | –
5 | COc1ccc(OC(C(=O)O)c2ccccc2)c2c1CCCC2=O (centres undefined) | > 100 µM | > 100 µM | > 100 µM | > 100 µM | > 100 µM | > 100 µM | > 100 µM | – | – | > 100 µM | – | – | – | – | – | > 100 µM | – | – | – | –
6 | O=C1c2ccccc2C(=O)N1C/C=C/CO | > 100 µM | – | > 100 µM | > 100 µM | > 100 µM | > 100 µM | > 100 µM | – | – | > 100 µM | – | – | – | – | – | > 100 µM | – | – | – | –
7 | S=C(N/N=C(/c1ccccc1)c1ccccn1)N1CCCCCC1 | – | 2.11 µM | 1.43 µM and 1.68 µM | 2.04 µM | 1.65 µM and 1.33 µM | 0.00191 µM | 1.96 µM and 2.01 µM | – | – | 1.91 µM | < 0.001 µM | – | < 0.001 µM | 0.0392 µM | 0.39 µM | 3.73 µM and 0.78 µM | < 0.001 µM | 1.28 µM and 2.54 µM | 0.00375 µM | –
8 | c1ccc2c(c1)[nH]c1c2nc2ncccn21 | – | > 100 µM | > 100 µM | > 100 µM | > 100 µM | > 100 µM | > 100 µM | – | – | > 100 µM | – | – | – | – | – | > 100 µM | – | – | – | –
9 | CC1=C[P+](Cc2ccccc2)(c2ccccc2)CC1 (centres undefined) | > 100 µM | > 100 µM | > 100 µM | > 100 µM | > 100 µM | > 100 µM | > 100 µM | – | – | > 100 µM | – | – | – | 19.9 µM and 76.5 µM and 31.2 µM | – | > 100 µM | – | – | – | –
10 | S=c1nc(Cl)cc2[nH]c(Cl)cn12 | 43.3 µM | 48.8 µM | > 100 µM | 44.9 µM | 57.4 µM | – | > 100 µM | – | – | > 100 µM | – | – | – | – | – | > 100 µM | – | 6.89 µM | – | –
11 | C=C1C(=O)O[C@@H]2C1C[C@@H](O)C(=C)CC/C=C(\C)CCC[C@H](C)[C@H]2OC(C)=O (some centres undefined) | 6.61 µM | 15 µM | 13.6 µM | 28 µM | 45.4 µM | 5.9 µM | – | 3.71 µM | 15.4 µM | 30.7 µM | 3.81 µM | 4.65 µM | 2.54 µM | – | 7.45 µM | 21.7 µM | 3.38 µM | 14.2 µM | 15.4 µM | 2.52 µM
12 | O=C(NCc1ccco1)c1ccc(NC2=C(Cl)C(=O)N(Cc3ccccc3)C2=O)cc1 | 23.6 µM | 27.5 µM | > 100 µM | > 100 µM | > 100 µM | 38 µM | – | 13.8 µM | 16.5 µM | 31.7 µM | 51.7 µM | 51.3 µM | 14.7 µM | – | 16.7 µM | 36.7 µM | 18.3 µM | 39.5 µM | 42.5 µM | 8.52 µM
13 | C=C(C)[C@@H]1CC[C@]2(CO)CC[C@]3(C)[C@H](CC[C@@H]4[C@@]5(C)CCC(NCCc6ccc(O)cc6)C(C)(C)[C@@H]5CC[C@]43C)[C@@H]12 (some centres undefined) | – | 3.35 µM | 2.89 µM | 3.18 µM | – | 3.38 µM | – | 1.79 µM | – | – | 1.41 µM | 1.7 µM | 1.38 µM | – | 1.63 µM | 3.09 µM | 1.63 µM | 3.45 µM | – | –
14 | CCOc1ccccc1NC(=O)CCc1n[nH]c(=S)o1 | > 100 µM | > 100 µM | > 100 µM | – | – | > 100 µM | > 100 µM | – | – | – | – | – | – | – | – | > 100 µM | – | – | – | –
15 | O=S(O)CCCSSc1ccccc1 | – | > 100 µM | > 100 µM | > 100 µM | > 100 µM | 70.2 µM | > 100 µM | – | – | > 100 µM | – | – | – | – | – | > 100 µM | – | – | – | –
16 | O=C(NC1C2CC3CC(C2)CC1C3)c1cc(/C=C/c2ccccc2)[nH]c(=S)n1 (centres undefined) | > 100 µM | > 100 µM | > 100 µM | > 100 µM | > 100 µM | > 100 µM | > 100 µM | – | – | > 100 µM | – | – | – | – | – | > 100 µM | – | – | – | –
17 | COc1ccc2nc3ccccc3c(NCCCN(C)CCCl)c2c1 | 1.12 µM | 1.2 µM | 1.48 µM | 2.07 µM | 2.02 µM | 0.888 µM | 1.55 µM | – | – | 3.05 µM | – | – | – | – | – | 2.05 µM | – | – | – | –
18 | COc1ccc(CNc2nc3cc(N)cc(N)c3nc2-c2ccccc2)cc1 | 15.9 µM | 34.4 µM | 30 µM | 21.3 µM | 39.5 µM | – | 22.5 µM | 16.8 µM | 17.2 µM | 34.3 µM | 12.8 µM | 8.12 µM | – | 10.7 µM | 14.9 µM | 29.8 µM | 22.7 µM | 83.3 µM | 14.8 µM | –
19 | OCC1OC(n2cnc3c(Cl)nc(Cl)cc32)C(O)C1O (centres undefined) | > 100 µM | > 100 µM | > 100 µM | – | > 100 µM | > 100 µM | > 100 µM | > 100 µM | > 100 µM | > 100 µM | > 100 µM | – | > 100 µM | > 100 µM | > 100 µM | > 100 µM | > 100 µM | > 100 µM | > 100 µM | > 100 µM

From PubChem BioAssay (NCI)
